Data from patent US7642245B2, “Antibacterial compounds having a (pyrrole carboxamide)-(benzamide)-(imidazole carboxamide) motif” (Oscient Pharmaceuticals Corporation, priority 2002, dated 2010).

Assays:
[1] = system: M. catarrhalis (ATCC 25238); assay: MIC, NCCLS broth microdilution; assay type: cell-based, Moraxella (now Branhamella) catarrhalis; conditions: H = M. catarrhalis (ATCC 25238)
In short: (§1)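 MIC values come from microtiter-plate broth microdilution run to NCCLS standards (M7-A4, M11-A4, M27-T). For C. albicans ATCC 38247, the antifungal procedure of the 1995 Manual of Clinical Microbiology was used instead.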

E. faecalis ATCC 29212 = assay: MIC, NCCLS broth microdilution; assay type: cell-based, Enterococcus faecalis; conditions: C = E. faecalis ATCC 29212
In short: (§2)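 Broth microdilution MIC per NCCLS M7-A4 and M11-A4 for bacteria (MRSA strain for S. aureus ATCC 27660); antifungal MIC per NCCLS M27-T with the Murray 1995 Manual of Clinical Microbiology method. MIC taken as lowest inhibitory concentration.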

C. albicans ATCC 38247 = assay: MIC, antifungal assay; assay type: cell-based, Candida albicans; conditions: F = C. albicans ATCC 38247
In short: as §1

B. cereus ATCC 11778 = assay: MIC, NCCLS broth microdilution; assay type: cell-based, Bacillus cereus; conditions: D = B. cereus ATCC 11778
In short: as §1

E. coli ATCC 25922 = assay: MIC, NCCLS broth microdilution; assay type: cell-based, Escherichia coli; conditions: G = E. coli ATCC 25922
In short: as §2

S. pneumoniae ATCC 49619 = assay: MIC, NCCLS broth microdilution; assay type: cell-based, Streptococcus pneumoniae; conditions: E = S. pneumoniae ATCC 49619
In short: as §2

S. aureus ATCC 13709 = assay: MIC, NCCLS broth microdilution; assay type: cell-based, Staphylococcus aureus; conditions: A = S. aureus ATCC 13709 (MSSA)
In short: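 Minimal inhibitory concentration determined by NCCLS broth microdilution in microtiter plates per documents M7-A4, M11-A4 and M27-T. S. aureus ATCC 27660 is a methicillin-resistant strain. The antifungal test on C. albicans followed the method recommended in the Manual of Clinical Microbiology (1995).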

S. aureus ATCC 27660 = assay: MIC, NCCLS broth microdilution; assay type: cell-based, Staphylococcus aureus; conditions: B = S. aureus ATCC 27660 (MRSA)
In short: as §1

[2] = system: Staphylococcus aureus ATCC 13709; assay: Disc diffusion of non-formulated compounds; assay type: cell-based; conditions: ATCC13709, non-formulated compound, 30 μg/disc, S. aureus ATCC 13709 on TSA, 6.3 mm disc = no inhibition zone, read-out: Zone Diameter (nearest whole mm)
Method: (§3) The diffusion assays on a compound of this invention were performed according to NCCLS Guidelines (Performance Standards for Antimicrobial Susceptibility Testing, M100-S12 vol. 22 and Performance Standards for Antimicrobial Disk Susceptibility Tests, M2-A7 vol. 20) with the following modifications: Generally, diffusion of the drug from the inoculation site (the disk or the well, as the case may be) through the agar creates a concentration gradient of the test compound. Bacterial growth is inhibited by the drug, creating a zone of inhibition. […] The activity of the compound was determined by measurement of the zone of inhibition surrounding the disk. The results are provided in Tables C, D, and E. The diffusion results of Table C measure the diffusion of free compound. The diffusion results of Tables D and E measure the diffusion of compound formulated into a cream.

[3] = system: Streptococcus pneumoniae ATCC 49619; assay: Disc diffusion of non-formulated compounds; assay type: cell-based; conditions: ATCC49619, non-formulated compound, 30 μg/disc, S. pneumoniae ATCC 49619 on TSA + 5% Sheep Blood, 6.3 mm disc = no inhibition zone, read-out: Zone Diameter (nearest whole mm)
Method: as §3

[4] = system: Enterococcus faecalis ATCC 29212; assay: Disc diffusion of non-formulated compounds; assay type: cell-based; conditions: ATCC29212, non-formulated compound, 30 μg/disc, E. faecalis ATCC 29212 on TSA + 5% Sheep Blood, 6.3 mm disc = no inhibition zone, read-out: Zone Diameter (nearest whole mm)
Method: as §3

Row | Structure (SMILES) | Minimum Inhibitory Concentration (MIC) [1] | Minimum Inhibitory Concentration (MIC) (E. faecalis ATCC 29212) | Minimum Inhibitory Concentration (MIC) (C. albicans ATCC 38247) [µg/mL] | Minimum Inhibitory Concentration (MIC) (B. cereus ATCC 11778) | Minimum Inhibitory Concentration (MIC) (E. coli ATCC 25922) | Minimum Inhibitory Concentration (MIC) (S. pneumoniae ATCC 49619) | Minimum Inhibitory Concentration (MIC) (S. aureus ATCC 13709) | Minimum Inhibitory Concentration (MIC) (S. aureus ATCC 27660) | zone of inhibition at 30 µg/disc [2] [mm] | zone of inhibition at 30 µg/disc [3] [mm] | zone of inhibition at 30 µg/disc [4] [mm]
1 | CCC(O)CN1CCN(CCNC(=O)c2nc(NC(=O)c3ccc(NC(=O)c4cc(NC(=O)c5cc6ccccc6cn5)cn4C)cc3)cn2C)CC1 (stereo not shown) [Compound A-78] | +++ (MIC ≦ 4 μg/mL) | +++ (MIC ≦ 4 μg/mL) | >32 | +++ (MIC ≦ 4 μg/mL) | + (12 ≦ MIC ≦ 32 μg/mL) | +++ (MIC ≦ 4 μg/mL) | +++ (MIC ≦ 4 μg/mL) | +++ (MIC ≦ 4 μg/mL) | – | – | –
2 | Cn1cc(NC(=O)c2cc3ccccc3cn2)cc1C(=O)Nc1ccc(C(=O)Nc2cn(C)c(C(=O)NCCN3CCCC3CO)n2)cc1 (stereo not shown) [Compound A-81] | +++ (MIC ≦ 4 μg/mL) | +++ (MIC ≦ 4 μg/mL) | >32 | +++ (MIC ≦ 4 μg/mL) | >32 µg/mL | +++ (MIC ≦ 4 μg/mL) | +++ (MIC ≦ 4 μg/mL) | +++ (MIC ≦ 4 μg/mL) | – | – | –
3 | CN[C@H](CC(C)C)C(=O)N[C@H]1C(=O)N[C@@H](CC(N)=O)C(=O)N[C@H]2C(=O)N[C@H]3C(=O)N[C@H](C(=O)N[C@H](C(=O)O)c4cc(O)cc(O)c4-c4cc3ccc4O)[C@H](O)c3ccc(c(Cl)c3)Oc3cc2cc(c3O[C@@H]2O[C@H](CO)[C@@H](O)[C@H](O)[C@H]2O[C@H]2C[C@](C)(N)[C@H](O)[C@H](C)O2)Oc2ccc(cc2Cl)[C@H]1O [Vancomycin] | – | – | – | – | – | – | – | – | 15 | 19 | 15
